According to US20220168325A1, “METHODS TO PROMOTE CEREBRAL BLOOD FLOW IN THE BRAIN” (THE UNIVERSITY OF VERMONT, priority 2019, published 2022):

Key:
[1] = system: K+-evoked capillary hyperemia; test: In vivo two-photon imaging of K+-evoked capillary RBC flux through cranial window; set-up: species or system C57BL/6J mouse
Kir2.1 channel [2] = target: T1, Kir2.1 channel (Mus musculus, UniProt P35561); test: Patch-clamp recording of Kir2.1 currents in freshly isolated brain capillary endothelial cells (cECs); conditions: perforated patch
T1 sequence (P35561 1-428): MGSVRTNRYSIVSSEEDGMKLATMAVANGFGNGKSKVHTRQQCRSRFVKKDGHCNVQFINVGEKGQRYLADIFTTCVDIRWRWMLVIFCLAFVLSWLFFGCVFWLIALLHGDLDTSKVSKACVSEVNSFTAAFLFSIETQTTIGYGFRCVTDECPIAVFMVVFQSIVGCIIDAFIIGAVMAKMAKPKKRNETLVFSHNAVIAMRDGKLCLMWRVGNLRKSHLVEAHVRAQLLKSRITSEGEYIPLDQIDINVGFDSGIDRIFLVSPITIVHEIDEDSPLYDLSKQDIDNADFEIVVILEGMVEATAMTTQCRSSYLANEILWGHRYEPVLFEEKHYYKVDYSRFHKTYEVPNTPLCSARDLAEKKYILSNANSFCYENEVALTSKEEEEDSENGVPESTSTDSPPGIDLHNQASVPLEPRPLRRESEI

[3] = system: capillary-to-arteriole electrical signaling; test: Ex vivo capillary-parenchymal arteriole (CaPA) preparation: upstream arteriolar dilation to 10 mM K+ on capillaries; set-up: species or system C57BL/6J mouse
Text: Ex Vivo Capillary-Parenchymal Arteriole Preparation. The capillary-parenchymal arteriole (CaPA) preparation was obtained by dissecting parenchymal arterioles arising from the M1 region of the middle cerebral artery, leaving the attached capillary bed intact, as reported recently (Longden et al, “Capillary K^+-Sensing Initiates Retrograde Hyperpolarization to Increase Local Cerebral Blood Flow,” Nat. Neurosci. 20:717-726 (2017), which is hereby incorporated by reference in its entirety). Precapillary arteriolar segments were cannulated on glass micropipettes on a Living Systems Instrumentation pressure myograph, with one end occluded by a tie. The ends of the capillaries were then sealed by the downward pressure of an overlying glass micropipette. Application of pressure (40 mmHg) to the cannulated parenchymal arteriole segment in this preparation pressurized the entire tree and induced myogenic tone in the parenchymal arteriole segment. With this preparation, 10 mM K^+ was applied onto capillaries by pressure ejection from a glass micropipette (tip diameter, ˜5 μm) attached to a Picospritzer III (Parker) at ˜5 psi for 18 s. Luminal diameter in parenchymal arterioles was acquired in one region of the arteriolar segment at 15 Hz using IonWizard 6.2 edge-detection software (IonOptix). Changes in arteriolar diameter were calculated from the average luminal diameter measured over the last 10 s of stimulation and were normalized to the maximum dilatory responses in 0 mM Ca^2+ bath solution at the end of each experiment.
Capillary Kir2.1 channels sense increases in [K^+]o caused by increased neuronal activity and initiate a hyperpolarizing signal. By virtue of strong electrical coupling between endothelial cells, retrograde hyperpolarization ascends to upstream feeding arterioles to enhance cerebral blood flow to the site of signal initiation (Longden et al, “Capillary K^+-Sensing Initiates Retrograde Hyperpolarization to Increase Local Cerebral Blood Flow,” Nat. Neurosci. 20:717-726 (2017), which is hereby incorporated by reference in its entirety). […] During this lag period, Kir2.1 currents recorded in the perforated-patch configuration declined steadily (τdecay≈12 minutes), but K^+-mediated retrograde dilatory signaling remained intact until Kir2.1 currents reached ˜50% of their maximal amplitude (FIG. 7C).

[4] = system: capillary-to-arteriole electrical signaling; test: Ex vivo CaPA preparation from transgenic mice: arteriolar tone and dilation to capillary 10 mM K+
Kir2.1 channel [5] = target: T1, Kir2.1 channel; test: Patch-clamp Ba2+-sensitive Kir2.1 current in cECs from transgenic mice; assay type: cell-based, TgNotch3^WT and TgNotch3^R169C mice; set-up: freshly isolated capillary endothelial cells from TgNotch3^WT and TgNotch3^R169C brains; endogenous in cells; host or cells: freshly isolated brain capillary endothelial cells from TgNotch3^WT and TgNotch3^R169C mice (FVB/N background); conditions: CADASIL cECs
functional hyperemia = test: Whisker stimulation-induced functional hyperemia in vivo (laser Doppler flowmetry, somatosensory cortex); set-up: species or system TgNotch3^WT and TgNotch3^R169C mice; conditions: exogenous PIP2 (diC16-PIP2 systemically via femoral artery catheter), CADASIL model mice
intracerebral arterioles = test: Luminal diameter of isolated pressurized parenchymal arterioles; set-up: species or system TgNotch3^WT and TgNotch3^R169C mice; conditions: bath soluble PIP2 10 μM; TgNotch3^WT and TgNotch3^R169C arterioles
Experimental: FIGS. 21A and 21B show typical recordings of luminal diameter of pressurized parenchymal arterioles from TgNotch3^WT (control) and TgNotch3^R169C (CADASIL) mice. NS309 and U46619 are used to test the ability of the arteriole to dilate and constrict, respectively. Bath application of soluble PIP2 at 10 μM has little effect on arteriole diameter.

[6] = bath-applied PGE2 1 μM or carbachol 10 μM

Kir2.1 current decline at X0 (12 minutes) (Kir2.1 channel [2]; carbachol 10 μM) [%] | Time constant of exponential decay of Kir2.1 current (τdecay) (Kir2.1 channel [2]; PGE2 2 μM or carbachol 10 μM applied at t0) [min] | Compound | K+-induced increase in capillary RBC flux ([1]; carbachol 0.6 μg/kg intravascular, t=20 minutes after injection, 10 mM K+, saline controls 52±12%) [%] | Baseline capillary RBC flux (before K+ application) ([1]; carbachol 0.6 μg/kg, over 30 minutes) | Lag phase (X0) before inhibition of capillary-mediated arteriolar dilation [3, 6] | Time constant of postplateau exponential decay of K+-induced dilation (τdecay) [3, 6] | K+-induced upstream arteriolar vasodilation ([3]; bath-applied PGE2 1 μM or carbachol 10 μM, 10 mM K+ on capillaries) | Parenchymal arteriolar diameter ([3]; carbachol, FIGS. 8A-8D) | Upstream arteriole response to 10 mM K+ on capillaries ([4]; CaPA from endothelial specific Kir2.1^-/- (Kir channel deficient) mice, HB-EGF or soluble PIP2 present) | Arteriolar dilation in response to capillary stimulation with 10 mM K+ ([4]; TgNotch3^R169C CaPA, 1 mM 4-AP, 30 ng/mL HB-EGF bath, or exogenous PIP2 bath) | Kir2-mediated current (Kir2.1 channel [5]; exogenous soluble PIP2 10 μM (diC16-PIP2, 20 minutes pre-incubation)) | Kir current (Kir2.1 channel [5]; intracellular soluble PIP2 via patch pipette (10 μM diC8-PIP2)) | Functional hyperemia in vivo (functional hyperemia) | Arteriole diameter (intracerebral arterioles)
~58 | 8 | C[N+](C)(C)CCOC(N)=O [carbachol] | 10±6 | did not change | ≈ 12 minutes | ≈ 13 minutes | similarly suppressed | minimally altered parenchymal arteriolar diameter |  |  |  |  |  | 
 |  | phosphatidylinositol 4,5-bisphosphate [soluble PIP2] |  |  |  |  |  |  | absence of effect | restored | increased Kir2-mediated current in cECs from CADASIL mice to values observed in control groups | counteracted the reduction in Kir current | restored | little effect
